The numbers were not newly measured in US7205279B2, “Pharmaceutical compositions” (Novartis AG, priority 1995, dated 2007), which cites them from elsewhere.

The conditions of this data set: room temperature.

In the case of `CCOC(C)=O` [Ethyl acetate], the solubility in water is given as 8.5 g per 100 ml.
